What was measured:
rat brain TSPO = rat brain TSPO (Rattus norvegicus, UniProt P16257); assay type: binding; settings: for binding affinity for TSPO (in words): locked amide rotamers of ligand 22; for LipE: pKi minus clogD
[1] = computed value; Table 1 footnote b; cited from earlier work
[2] = assay type: physicochemical; settings: n-octanol/sodium phosphate buffer, pH 7.4

SMILES | Ki (rat brain TSPO) | binding affinity for TSPO (in words) (rat brain TSPO) | LipE (rat brain TSPO) | cLogD [1] | logD [2]
CC(C)N1CCC(Oc2cc(-c3ccccn3)nc3ccccc23)C1=O (centres unmarked) [Ligand 34, 1-Isopropyl-3-[2-(pyridin-2-yl)quinolin-4-yloxy]pyrrolidin-2-one] | > 1000 nM | lacked any appreciable binding affinity | <3.36 | – | –
CCC(C)N(C)C(=O)c1cc2ccccc2c(-c2ccccc2Cl)n1 (centres unmarked) [Ligand 1, PK11195] | – | – | – | 3.97 | –
O=[N+]([O-])c1ccccc1NCc1ccccn1 [Ligand 35, 2-Nitro-N-(pyridin-2-ylmethyl)aniline] | – | lacked any appreciable binding affinity | – | – | –
CC(Oc1cc(-c2ccccn2)nc2ccccc12)C(=O)N(C)C(C)C (centres unmarked) [Ligand 22, N-Isopropyl-N-methyl-2-[2-(pyridin-2-yl)quinolin-4-yloxy]propanamide] | 0.76 ± 0.09 nM | – | 6.58 ± 0.05 | – | –
CC(Oc1cc(-c2ccccn2)nc2ncccc12)C(=O)N(C)c1ccccc1 (centres unmarked) [Ligand 20, N-Methyl-N-phenyl-2-[2-(pyridin-2-yl)-1,8-naphthyridin-4-yloxy]propanamide] | 0.5 ± 0.1 nM | – | 6.5 ± 0.1 | – | 2.48
CC(Oc1cc(-c2ccccn2)nc2ccccc12)C(=O)N(C)c1ccc(F)cc1 (centres unmarked) [Ligand 23, N-(4-Fluorophenyl)-N-methyl-2-[2-(pyridin-2-yl)quinolin-4-yloxy]propanamide] | 0.09 ± 0.01 nM | – | 5.80 ± 0.06 | – | –
CC(Oc1cc(-n2cccc2)nc2ccccc12)C(=O)N(C)c1ccccc1 (centres unmarked) [Ligand 29, 2-[2-(1H-Pyrrol-1-yl)quinolin-4-yloxy]-N-methyl-N-phenylpropanamide] | 0.22 ± 0.03 nM | – | 6.13 ± 0.07 | – | –
COc1cc(OC(C)C(=O)N(C)c2ccccc2)c2cccnc2n1 (centres unmarked) [Ligand 27, 2-(2-Methoxy-1,8-naphthyridin-4-yloxy)-N-methyl-N-phenylpropanamide] | 7.8 ± 0.6 nM | – | 6.09 ± 0.04 | – | –
CC(On1c(-c2ccccn2)nc2ccccc21)C(=O)N(C)C(C)C (centres unmarked) [Ligand 36, N-Isopropyl-N-methyl-2-(2-(pyridin-2-yl)-1H-benzo[d]imidazol-1-yloxy)propanamide] | > 1000 nM | – | <2.47 | – | –
CN1C(=O)C(Oc2cc(-c3ccccn3)nc3ccccc23)CC1(C)C (centres unmarked) [Ligand 33, 1,5,5-Trimethyl-3-[2-(pyridin-2-yl)quinolin-4-yloxy]pyrrolidin-2-one] | > 1000 nM | – | <3.93 | – | –
CC(Oc1cc(-c2ncccn2)nc2ccccc12)C(=O)N(C)c1ccccc1 (centres unmarked) [Ligand 21, N-Methyl-N-phenyl-2-[2-(pyrimidin-2-yl)quinolin-4-yl]oxypropanamide] | 0.53 ± 0.08 nM | – | 6.6 ± 0.1 | – | 2.48

From paper PMC5097887 (European journal of medicinal chemistry, 2016)
